Data on 26 compounds can be found in patent publication US20160311826A1, “SGC STIMULATORS” (IRONWOOD PHARMACEUTICALS, INC., priority 2013, published 2016).

Molecules are shown by their SMILES.

One assay has as its system lambs with acute pulmonary hypertension.
Assay: not given
The note with it: after inhaling the microparticles; cited from earlier work.
Regarding `Nc1nc(-c2nn(Cc3ccccc3F)c3ncccc23)nc(N)c1N1CCOCC1` [BAY 41-8543], the “magnitude and duration of pulmonary vasodilation induced by iNO” value is given as “augmented”.

The assay is the same for the next values; noted with them: inhaled microparticles after ODQ; cited from earlier work.
Regarding `O=C(O)CCCCN(CCc1ccccc1OCc1ccc(CCc2ccccc2)cc1)Cc1ccc(C(=O)O)cc1` [BAY 58-2667], the “pulmonary vasodilation and transpulmonary cGMP release after treatment with ODQ” value is on record as “greatly enhanced”.

The same assay, now with this note: inhaled microparticles with excipients; awake lambs, U-46619 infusion; cited from earlier work.
Regarding `Nc1nc(-c2nn(Cc3ccccc3F)c3ncccc23)ncc1C1CC1` [BAY 41-2272], the “effect on mean arterial pressure” value is recorded as “without significant effect on mean arterial pressure”, the pulmonary vasodilation entry was “dose dependent pulmonary vasodilation” and the “transpulmonary cGMP release” value is “increased transpulmonary cGMP release”.

On to `Nc1nc(-c2nn(Cc3ccccc3F)c3ncccc23)nc(N)c1N1CCOCC1` [BAY 41-8543], for which the “effect on mean arterial pressure” value was “without significant effect on mean arterial pressure”, the pulmonary vasodilation entry is reported as “dose dependent pulmonary vasodilation” and the “transpulmonary cGMP release” value is on record as “increased transpulmonary cGMP release”.

With `O=C(O)CCCCN(CCc1ccccc1OCc1ccc(CCc2ccccc2)cc1)Cc1ccc(C(=O)O)cc1` [BAY 58-2667], the “effect on mean arterial pressure” value is “without significant effect on mean arterial pressure”, the pulmonary vasodilation entry was “dose dependent pulmonary vasodilation” and the “transpulmonary cGMP release” value is “increased transpulmonary cGMP release”.

Still in this assay, the particulars now being: inhaled microparticles; cited from earlier work.
In the case of `Nc1nc(-c2nn(Cc3ccccc3F)c3ncccc23)nc(N)c1N1CCOCC1` [BAY 41-8543], the systemic arterial oxygenation entry is reported as “increased systemic arterial oxygenation”.

Consider `O=C(O)CCCCN(CCc1ccccc1OCc1ccc(CCc2ccccc2)cc1)Cc1ccc(C(=O)O)cc1` [BAY 58-2667], for which the systemic arterial oxygenation entry is “increased systemic arterial oxygenation”.

Staying with this assay, now noted: intravenous administration; cited from earlier work.
Turning to `O=c1onc2cnc3ccccc3n12` [ODQ, 1H-[1,2,4]oxadiazolo[4,3-a]quinoxalin-1-one], the “effect on pulmonary vasodilator effect of iNO” value is “markedly reduced the pulmonary vasodilator effect of iNO”.

The target in another assay is T1, soluble guanylate cyclase (sGC) (Homo sapiens, UniProt Q02108+Q02153).
T1 construct: endogenously expressing soluble guanylate cyclase (sGC); endogenous in cells; host or cells: HEK293
T1 sequence (Q02153 1-619): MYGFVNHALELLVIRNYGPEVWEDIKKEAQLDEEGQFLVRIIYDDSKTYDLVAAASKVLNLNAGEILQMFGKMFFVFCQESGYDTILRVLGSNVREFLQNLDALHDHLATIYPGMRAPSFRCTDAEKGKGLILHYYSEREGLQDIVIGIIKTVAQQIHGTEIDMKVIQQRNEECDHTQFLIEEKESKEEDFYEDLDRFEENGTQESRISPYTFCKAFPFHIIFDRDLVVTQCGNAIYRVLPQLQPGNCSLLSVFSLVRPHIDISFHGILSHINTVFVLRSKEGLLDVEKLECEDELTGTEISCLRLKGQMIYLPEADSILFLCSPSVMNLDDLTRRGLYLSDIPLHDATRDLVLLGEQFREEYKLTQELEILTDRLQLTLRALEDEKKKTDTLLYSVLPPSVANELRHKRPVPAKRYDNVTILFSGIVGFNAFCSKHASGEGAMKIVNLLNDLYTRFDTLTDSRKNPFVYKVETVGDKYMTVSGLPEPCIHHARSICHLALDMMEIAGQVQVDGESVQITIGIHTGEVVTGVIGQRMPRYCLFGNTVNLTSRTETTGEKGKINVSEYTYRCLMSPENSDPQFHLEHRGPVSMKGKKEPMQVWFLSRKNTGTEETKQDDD
T1 sequence (Q02108 1-690): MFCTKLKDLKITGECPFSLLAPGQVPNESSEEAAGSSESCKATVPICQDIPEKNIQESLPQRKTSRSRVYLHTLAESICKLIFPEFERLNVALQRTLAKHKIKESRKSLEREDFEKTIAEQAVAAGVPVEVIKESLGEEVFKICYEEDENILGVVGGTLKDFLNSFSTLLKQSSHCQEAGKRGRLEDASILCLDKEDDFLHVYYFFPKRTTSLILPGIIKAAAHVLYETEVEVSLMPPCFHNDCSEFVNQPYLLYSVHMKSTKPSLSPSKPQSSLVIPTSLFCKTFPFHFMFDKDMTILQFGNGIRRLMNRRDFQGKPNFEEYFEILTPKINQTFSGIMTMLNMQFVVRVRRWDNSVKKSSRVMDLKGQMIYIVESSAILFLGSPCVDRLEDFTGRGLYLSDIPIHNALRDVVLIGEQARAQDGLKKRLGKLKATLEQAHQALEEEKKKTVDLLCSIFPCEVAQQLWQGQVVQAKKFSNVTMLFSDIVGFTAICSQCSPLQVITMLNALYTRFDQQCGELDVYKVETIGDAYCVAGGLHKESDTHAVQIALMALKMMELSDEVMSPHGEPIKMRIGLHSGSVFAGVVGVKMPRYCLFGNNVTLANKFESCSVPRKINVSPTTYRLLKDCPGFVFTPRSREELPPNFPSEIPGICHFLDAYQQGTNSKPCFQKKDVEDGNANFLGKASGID
Kind of assay: sGC-HEK-cGMP assay with LC/MS detection. The class given is cell-based. Conditions: HEK293 cells, 10 μM DETA-NONOate; concentration eliciting 50% of high control response (30 μM Compound Y); read-out: sGC_HEK_LC MS EC50 Abs. As to the method:
Human embryonic kidney cells (HEK293), endogenously expressing soluble guanylate cyclase (sGC), were used to evaluate the activity of test compounds. Compounds stimulating the sGC enzyme should cause an increase in the intracellular concentration of cGMP. HEK 293 cells were seeded in Dulbecco's Modification of Eagle's Medium supplemented with fetal bovine serum (10% final) and penicillin (100 U/mL)/streptomycin (100 ug/mL) in a […] at a density of 1.5×10^4 cells/well in a poly-D-lysine coated 384 well flat bottom plate. Cells were incubated overnight at 37° C. in a humidified chamber with 5% CO2. Medium was aspirated and cells were washed with 1× Hank's Buffered Saline Salt Solution […]. Cells were then incubated for 15 minutes at 37° C. with 50 μL of a 0.5 mM 3-isobutyl-1-methylxanthine (IBMX) solution. Test article and Diethylenetriamine NONOate (DETA-NONOate) solutions (x μM concentration for test article solution and 10 μM concentration for DETA-NONOate solution; wherein x is one of the following concentrations);
were then added to the assay mixture and the resulting mixture incubated at 37° C. for 20 minutes. After the 20 minute incubation, the assay mixture was aspirated and 10% acetic acid containing 150 ng/mL+3-cGMP (internal standard for LCMS) (50 μL) was added to the cells. The plate was incubated at 4° C. for 30 minutes in the acetic acid solution to stop the reaction and lyse the cells. The plates were then centrifuged at 1,000g for 3 minutes at 4° C. and the supernatant transferred to a clean reaction plate for LCMS analysis.
cGMP concentrations were determined from each sample using the LCMS conditions below (Table 2) and calculated standard curve. The standard curve was prepared in 10% acetic acid with 150 ng/mL+3cGMP (isotopically labelled cGMP with a weight 3 units higher than wild type) with the following final concentrations of cGMP in ng/mL: 1, 5, 10, 50, 100, 250, 500, 1000, 2000.
Data were normalized to a high control using the following equation: 100*(Sample−Low Control)/(High Control−Low Control), where the low control is the average of 16 samples treated with 1% DMSO, and the high control is the average of 16 samples treated with 30 μM of Compound Y depicted below. Data were fit using a 4-parameter fit (log(agonist) vs. response−variable slope) using GraphPad Prism Software v.5. n=2 for all compounds. The Absolute EC50 was interpolated from the curve fit and is defined as the concentration at which a given compound elicits 50% of the high control response. Compounds failing to elicit a minimum response of 50% are reported as >30 μM. For compounds run in duplicate or n higher than 2, the result herein given is the geometric mean of the several results obtained.
Code definitions for the whole cell HEK assay values, expressed as Absolute EC50 which is defined as the concentration at which a given compound elicits 50% of the high control response (Compound Y). Compounds failing to elicit a minimum response of 50% are reported as *.
By EC50 is commonly meant the midpoint of the concentration-response curve. For the compound `COc1cc(-c2nc(N)c3c(n2)NC(=O)C3(C)C(=O)NC2CC2)nn1Cc1ccccc1F` (stereo not drawn) [Compound I-44], the EC50 was less than 0.1 µM.

Take `COc1cc(-c2ncc(F)c(N3CCS(=O)(=O)CC3)n2)nn1Cc1ccccc1F` [Compound I-63]: the EC50 is more than 30 µM.

Turning to `CCOC(=O)C1(C)C(=O)Nc2nc(-c3cc(OC(F)F)n(Cc4ccccc4F)n3)nc(N)c21` (stereo not drawn) [Compound I-72], the EC50 is less than 0.1 µM.

Another assay deals with T2, human recombinant soluble guanylate cyclase enzyme α1β1 (h sGC) (Homo sapiens, UniProt Q02108+Q02153).
T2 construct: purchased Enzo Life Sciences ALX-201-177
T2 sequence (Q02108 1-690): T1 sequence (Q02108 1-690)
T2 sequence (Q02153 1-619): T1 sequence (Q02153 1-619)
Kind of assay: Purified human recombinant sGC α1β1 enzyme assay in the presence of DETA-NONOate (cGMP HTRF). The assay is classed as biochemical.
Conditions: not given
As to the method:
Purified human recombinant soluble guanylate cyclase enzyme α1β1 (h sGC) obtained from Enzo Life Sciences (P/N: ALX-201-177) was used to evaluate the activity of test compounds. The assay reactions contained 0.1 M Tris (pH 8.0), 0.5 mg/mL BSA, 2 mM DTT, 4 mM MgCl2, 30 uM DETA NONOate (Enzo Life Science P/N: ALX-430-014), and 12.5 ng/ml human soluble guanylate cyclase enzyme. […] Guanosine 5′-triphosphate (Sigma-Aldrich P/N: G8877) was added to a final concentration of 300 μM and enzyme reactions were incubated (100 μL, 384-well plate format) at 37° C. for 20 minutes. The controls contained 3% DMSO (low control), or 30 uM of Compound Y (high control). After the 20 minute incubation, the reaction was stopped with the addition of 100 μL of ice cold 20% acetic acid.
cGMP concentrations in all samples were determined using the cGMP HTRF (Cisbio P/N: 62GM2PEC) assay per manufacturer's instructions. A cGMP standard curve was fit using a 4-parameter fit (log(inhibitor) vs. response—variable slope) using GraphPad Prism Software v.6. Samples were diluted appropriately to ensure that values fell within the linear range of the standard curve. The EC50 was interpolated from the curve fit and is defined as the concentration at which the compound elicits 50% of the maximal response of the 30 uM of Compound Y, the high control compound.
(TR-FRET usually uses a lanthanide donor and a delayed reading to cut background.)
For `CCOC(=O)C1(C)C(=O)Nc2nc(-c3nn(Cc4ccccc4F)c(=O)n3C)nc(N)c21` (stereo not drawn) [Compound I-29], the EC50 lay within 2 to 5 µM.

For the compound `CCOC(=O)C1(C)C(=O)Nc2nc(-c3nc(OC)n(Cc4ccccc4F)n3)nc(N)c21` (stereo not drawn) [Compound I-30], the EC50 was 2 to 5 µM.

The assay is the same for the next values; noted with them: 30 uM DETA NONOate; concentration eliciting 50% of high control response (30 uM Compound Y); read-out: sGC_Enz_HTRF_a1b1 EC50 Abs.
As for `O=c1[nH]c(-c2cc(OC(F)F)n(Cc3ccccc3F)n2)ncc1F` [Compound I-4], the 50% effective concentration (EC50) is more than 5 µM.

On to `COc1cc(-c2ncc(F)c(=O)[nH]2)nn1Cc1ccccc1F` [Compound I-5], for which the EC50 was more than 5 µM.

For the compound `COc1cc(-c2nccc(N)n2)nn1Cc1ccccc1F` [Compound I-6], the EC50 is more than 5 µM.

In the case of `COc1cc(-c2ncc(F)c(NCC(=O)O)n2)nn1Cc1ccccc1F` [Compound I-9], the EC50 is more than 5 µM.

For `CC1(C(N)=O)C(=O)Nc2nc(-c3nn(Cc4ccccc4F)c(=O)[nH]3)nc(N)c21` (stereo not drawn) [Compound I-10], the EC50 was more than 30 µM.

For `COc1cc(-c2ncc(F)c(NCCO)n2)nn1Cc1ccccc1F` [Compound I-13], the EC50 lay in the range of 2 to 5 µM.

Take `COc1nc(-c2nc(N)c3c(n2)NC(=O)C3(C)C(N)=O)nn1Cc1ccccc1F` (stereo not drawn) [Compound I-17]: the 50% effective concentration (EC50) was more than 5 µM.

Consider `Cn1c(-c2nc(N)c3c(n2)NC(=O)C3(C)C(N)=O)nn(Cc2ccccc2F)c1=O` (stereo not drawn) [Compound I-18], for which the concentration giving a half-maximal response (EC50) was more than 5 µM.

On to `COc1cc(-c2ncc(F)c(NCc3cc(=O)[nH]o3)n2)nn1Cc1ccccc1F` [Compound I-19], for which the EC50 lay within 2 to 5 µM.

`COc1cc(-c2ncc(F)c(NCC(O)(C(N)=O)C(F)(F)F)n2)nn1Cc1ccccc1F` (stereo not drawn) [Compound I-20]: the EC50 is less than 2 µM.

Regarding `CCOC(=O)C1(C)C(=O)Nc2nc(-c3nn(Cc4ccccc4F)c(=O)[nH]3)nc(N)c21` (stereo not drawn) [Compound I-21], the EC50 was more than 5 µM.

For the compound `COc1nc(-c2nc(N)c3c(n2)NC(=O)C3(C)C(=O)NC2CC2)nn1Cc1ccccc1F` (stereo not drawn) [Compound I-37], the EC50 was in the range of 2 to 5 µM.

Consider `Cn1c(-c2nc(N)c3c(n2)NC(=O)C3(C)C(=O)NC2CC2)nn(Cc2ccccc2F)c1=O` (stereo not drawn) [Compound I-38], for which the EC50 is less than 2 µM.

In the case of `CC1(C(N)=O)C(=O)Nc2nc(-c3cc(O)n(Cc4ccccc4F)n3)nc(N)c21` (stereo not drawn) [Compound I-48], the EC50 is more than 5 µM.

`Fc1cnc(-c2cc(OC(F)F)n(Cc3cccc(F)c3F)n2)nc1` [Compound I-59]: the EC50 is more than 5 µM.

As to `COc1cc(-c2ncc(F)c(NCC(O)CO)n2)nn1Cc1ccccc1F` (stereo not drawn) [Compound I-64], the EC50 is 2 to 5 µM.

For the compound `COc1cc(-c2ncc(F)c(N3CCC[C@H](C)[C@@H]3C(=O)O)n2)nn1Cc1ccccc1F` [Compound I-70], the EC50 lay within 2 to 5 µM.
